The values that follow come from patent US9012635B2, “Pyridone amides and analogs exhibiting anti-cancer and anti-proliferative activities” (Deciphera Pharmaceuticals, LLC, priority 2013, dated 2015).

Where a name gives a salt, the structure may show the parent alone.

The target in test [1] is T1, c-KIT kinase (Seq. ID No. 1) (Homo sapiens, UniProt P10721).
T1 construct: c-KIT (cKIT residues T544-V976, from ProQinase, 5.4 nM); purchased ProQinase
Put plainly: c-KIT kinase assay (pyruvate kinase/lactate dehydrogenase coupled, A340). Type of test: biochemical. The conditions noted are these: enzymatic assay, ATP 200 μM; read-out: cKIT. On the procedure: Activity of c-KIT kinase (Seq. ID No. 1) was determined by following the production of ADP from the kinase reaction through coupling with the pyruvate kinase/lactate dehydrogenase system (e.g., Schindler et al. Science 2000, 289, pp. 1938-1942). In this assay, the oxidation of NADH (thus the decrease at A340 nm) was continuously monitored spectrophotometrically. The reaction mixture (100 μl) contained c-KIT (cKIT residues T544-V976, from ProQinase, 5.4 nM), polyE4Y (1 mg/mL), MgCl2 (10 mM), pyruvate kinase (4 units), lactate dehydrogenase (0.7 units), phosphoenol pyruvate (1 mM), and NADH (0.28 mM) in 90 mM Tris buffer containing 0.2% octyl-glucoside and 1% DMSO, pH 7.5. Test compounds were incubated with c-KIT (Seq. ID No. 1) and other reaction reagents at 22° C. for less than 2 min before ATP (200 μM) was added to start the reaction. The absorption at 340 nm was monitored continuously for 0.5 hours at 30° C. on Polarstar Optima plate reader (BMG). The reaction rate was calculated using the 0 to 0.5 h time frame. Percent inhibition was obtained by comparison of reaction rate with that of a control (i.e., with no test compound). IC50 values were calculated from a series of percent inhibition values determined at a range of inhibitor concentrations using software routines as implemented in the GraphPad Prism software package.

Test [2] has as its target KDR kinase (Seq ID No. 3) (Homo sapiens, UniProt P35968, DEL940-989/E990V). Put plainly: KDR kinase assay (assays K1, K2, K3). Format: biochemical. The following applies: enzymatic assay; variant K1, K2 or K3 not given. The protocol: The activity of KDR kinase was determined by following the production of ADP from the kinase reaction through coupling with the pyruvate kinase/lactate dehydrogenase system (e.g., Schindler et al. Science 2000, 289, pp. 1938-1942). In this assay, the oxidation of NADH (thus the decrease at A340 nm) was continuously monitored spectrophotometrically. The reaction mixture (100 μl) contained KDR (Seq ID No. 3, 1.5 nM to 7.1 nM, nominal concentration), polyE4Y (1 mg/mL), pyruvate kinase (3.5 units), lactate dehydrogenase (5.5 units), phosphoenolpyruvate (1 mM), and NADH (0.28 mM) in 60 mM Tris buffer containing 0.13% octyl-glucoside, 13 mM MgCl2, 6.8 mM DTT, test compound, and 3.5% DMSO at pH 7.5. The reaction was initiated by adding ATP (0.2 mM, final concentration). The absorption at 340 nm was continuously monitored for 3 h at 30° C. on a Polarstar Optima plate reader (BMG) or instrument of similar capacity. The reaction rate was calculated using the 1 h to 2 h time frame. Percent inhibition was obtained by comparison of reaction rate with that of a control (i.e., with no test compound). IC50 values were calculated from a series of percent inhibition values determined at a range of inhibitor concentrations using software routines as implemented in the GraphPad Prism software package.
KDR kinase assay K2 is the same as for assay K1 except that (1) a nominal concentration of 2.1 nM of enzyme was employed (2) the reaction was pre-incubated with test compound at 30° C. for 2 h prior to initiation with ATP and (3) 1.0 mM ATP (final concentration) was used to initiate the reaction.
KDR kinase assay K3 is the same as for assay K1 except that (1) a nominal concentration of 1.1 nM of enzyme was employed, (2) the buffer components per 100 μl reaction mixture were as follows: 75 mM Tris buffer containing 0.066% octyl-glucoside, 17 mM MgCl2, and 1% DMSO at pH 7.5, (3) the final concentration of DTT was 0.66 mM, (4) the reaction was pre-incubated with test compound at 30° C. for 1 h prior to initiation with ATP, and (5) 1.0 mM ATP (final concentration) was used to initiate the reaction.

The target in test [3] is T2, Phospho-MET in EBC-1 cells (Homo sapiens, UniProt P08581).
T2 construct: endogenous in cells; host or cells: EBC-1 (JCRB0820)
T2 sequence (P08581 25-1390): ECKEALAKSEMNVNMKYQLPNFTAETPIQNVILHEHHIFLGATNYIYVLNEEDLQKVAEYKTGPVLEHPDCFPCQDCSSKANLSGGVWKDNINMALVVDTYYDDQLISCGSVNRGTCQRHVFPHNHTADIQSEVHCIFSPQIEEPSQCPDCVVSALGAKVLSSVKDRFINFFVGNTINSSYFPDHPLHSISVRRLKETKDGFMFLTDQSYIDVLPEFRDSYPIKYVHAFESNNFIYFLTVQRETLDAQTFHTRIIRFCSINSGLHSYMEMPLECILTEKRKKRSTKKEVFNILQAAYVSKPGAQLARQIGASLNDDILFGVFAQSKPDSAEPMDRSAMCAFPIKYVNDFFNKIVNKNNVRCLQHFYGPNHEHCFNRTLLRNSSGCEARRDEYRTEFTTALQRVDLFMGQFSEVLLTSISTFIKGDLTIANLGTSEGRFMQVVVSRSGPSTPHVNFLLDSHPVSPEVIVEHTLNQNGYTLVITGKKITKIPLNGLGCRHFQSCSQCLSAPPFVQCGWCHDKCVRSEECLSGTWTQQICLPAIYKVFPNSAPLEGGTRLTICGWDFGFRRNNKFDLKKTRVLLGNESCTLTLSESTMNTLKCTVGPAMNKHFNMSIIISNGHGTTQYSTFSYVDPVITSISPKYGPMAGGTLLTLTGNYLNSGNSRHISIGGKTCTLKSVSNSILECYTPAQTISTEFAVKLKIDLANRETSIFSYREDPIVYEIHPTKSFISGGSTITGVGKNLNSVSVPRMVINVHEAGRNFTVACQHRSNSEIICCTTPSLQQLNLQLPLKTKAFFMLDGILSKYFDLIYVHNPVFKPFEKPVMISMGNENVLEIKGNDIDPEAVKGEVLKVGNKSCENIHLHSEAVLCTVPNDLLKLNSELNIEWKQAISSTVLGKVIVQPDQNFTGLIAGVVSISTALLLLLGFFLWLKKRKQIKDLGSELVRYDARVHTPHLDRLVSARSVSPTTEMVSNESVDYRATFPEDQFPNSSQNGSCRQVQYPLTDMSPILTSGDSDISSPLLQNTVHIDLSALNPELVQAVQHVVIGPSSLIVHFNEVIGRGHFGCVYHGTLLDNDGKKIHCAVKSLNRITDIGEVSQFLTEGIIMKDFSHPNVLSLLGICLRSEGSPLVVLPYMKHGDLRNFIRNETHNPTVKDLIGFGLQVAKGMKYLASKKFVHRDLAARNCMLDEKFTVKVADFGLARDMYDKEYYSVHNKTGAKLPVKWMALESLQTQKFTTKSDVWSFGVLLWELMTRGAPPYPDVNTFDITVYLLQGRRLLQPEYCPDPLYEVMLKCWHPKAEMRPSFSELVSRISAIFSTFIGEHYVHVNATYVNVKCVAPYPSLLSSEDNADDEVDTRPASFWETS
Nature of the test: EBC-1 phospho-MET ELISA. The following applies: 6 h compound, 40 ng/mL HGF 10 min, read-out: EBC1 pMET. Format: cell-based. The protocol:
EBC-1 cells (catalog #JCRB0820) were obtained from the Japan Health Science Research Resources Bank, Osaka, Japan. Briefly, cells were grown in DMEM supplemented with 10% characterized fetal bovine serum (Invitrogen, Carlsbad, Calif.) at 37° C., 5% CO2, 95% humidity. Cells were allowed to expand until reaching 70-95% confluency at which point they were subcultured or harvested for assay use.
Fifteen thousand cells in DMEM supplemented with 0.5% characterized fetal bovine serum (FBS; Invitrogen, Carlsbad, Calif.) were added per well in a 96-well black clear bottom plate (Corning, Corning, N.Y.). Cells were then incubated overnight at 37 degrees Celsius, 5% CO2, 95% humidity. A serial dilution of test compound was dispensed into another 96-well black clear bottom plate (Corning, Corning, N.Y.) containing DMEM supplemented with 0.5% FBS. Diluted compound was then added to plates containing cells and incubated for 6 hours at 37 degrees Celsius, 5% CO2, 95% humidity. Cells were stimulated with 40 ng/mL HGF (R&D Systems, Minneapolis, Minn.) for 10 minutes, and then lysed. Phospho-MET in cell lysates was detected using the DuoSet IC Human Phospho-HGF R/c-MET ELISA (R&D Systems, Minneapolis, Minn.). Data was analyzed using Prism software (Graphpad, San Diego, Calif.) to calculate IC50 values.

T1 sequence (P10721 with tags, fused parts or gaps): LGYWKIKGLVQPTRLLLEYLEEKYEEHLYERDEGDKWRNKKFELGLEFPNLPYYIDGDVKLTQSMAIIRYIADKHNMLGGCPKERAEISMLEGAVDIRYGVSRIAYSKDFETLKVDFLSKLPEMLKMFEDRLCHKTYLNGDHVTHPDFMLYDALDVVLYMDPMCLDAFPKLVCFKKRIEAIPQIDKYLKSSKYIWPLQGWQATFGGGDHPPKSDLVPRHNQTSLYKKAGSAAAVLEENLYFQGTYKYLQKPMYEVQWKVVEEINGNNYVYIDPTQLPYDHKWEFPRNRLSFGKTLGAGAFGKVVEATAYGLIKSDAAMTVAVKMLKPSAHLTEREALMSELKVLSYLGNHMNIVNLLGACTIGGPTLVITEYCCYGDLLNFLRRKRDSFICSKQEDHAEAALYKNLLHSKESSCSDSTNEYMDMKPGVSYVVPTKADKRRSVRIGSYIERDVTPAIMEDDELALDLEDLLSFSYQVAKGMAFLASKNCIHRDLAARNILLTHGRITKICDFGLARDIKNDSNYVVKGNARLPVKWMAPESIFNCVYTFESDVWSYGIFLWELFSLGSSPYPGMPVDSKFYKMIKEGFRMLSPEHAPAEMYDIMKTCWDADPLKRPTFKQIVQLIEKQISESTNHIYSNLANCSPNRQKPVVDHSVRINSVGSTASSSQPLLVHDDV
Chain of KDR kinase (Seq ID No. 3) (P35968 with tags, fused parts or gaps DEL940-989/E990V): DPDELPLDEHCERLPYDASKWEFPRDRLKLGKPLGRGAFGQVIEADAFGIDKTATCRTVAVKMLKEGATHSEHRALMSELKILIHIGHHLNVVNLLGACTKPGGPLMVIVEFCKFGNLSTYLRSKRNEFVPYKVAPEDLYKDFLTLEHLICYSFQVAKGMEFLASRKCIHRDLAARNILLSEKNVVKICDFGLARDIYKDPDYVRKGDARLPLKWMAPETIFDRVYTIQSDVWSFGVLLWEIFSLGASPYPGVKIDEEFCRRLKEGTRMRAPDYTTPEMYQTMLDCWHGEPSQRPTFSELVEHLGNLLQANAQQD

`CCNc1ccn(-c2ccc(F)cc2)c(=O)c1C(=O)Nc1cc(F)c(Oc2ccnc(-c3cnn(C)c3)c2)cc1F` [Example 5, N-(2,5-difluoro-4-((2-(1-methyl-1H-pyrazol-4-yl)pyridin-4-yl)oxy)phenyl)-4-(ethylamino)-1-(4-fluorophenyl)-2-oxo-1,2-dihydropyridine-3-carboxamide]: the IC50 in test [1] and in test [2] was greater than 1000 nM throughout.
As for `Cn1cc(-c2cc(Oc3cc(F)c(NC(=O)c4cccn(-c5ccc(F)cc5)c4=O)cc3F)ccn2)cn1` [Example 1, N-(2,5-difluoro-4-((2-(1-methyl-1H-pyrazol-4-yl)pyridin-4-yl)oxy)phenyl)-1-(4-fluorophenyl)-2-oxo-1,2-dihydropyridine-3-carboxamide], the IC50 in test [1] is no more than 100 nM; in test [2], greater than 1000 nM; in test [3], no more than 100 nM.
On to `O=C(Nc1cc(F)c(Oc2ccnc(-c3cnn(CCO)c3)c2)cc1F)c1cccn(-c2ccc(F)cc2)c1=O` [Example 3, N-(2,5-difluoro-4-((2-(1-(2-hydroxyethyl)-1H-pyrazol-4-yl)pyridin-4-yl)oxy)phenyl)-1-(4-fluorophenyl)-2-oxo-1,2-dihydropyridine-3-carboxamide hydrochloride], for which the IC50 in test [1] is greater than 1000 nM; in test [2] it was greater than 1000 nM; in test [3], no more than 100 nM.
`CCOc1ccn(-c2ccc(F)cc2)c(=O)c1C(=O)Nc1cc(F)c(Oc2ccnc(-c3cnn(C)c3)c2)cc1F` [Example 2, N-(2,5-difluoro-4-(2-(1-methyl-1H-pyrazol-4-yl)pyridin-4-yloxy)phenyl)-4-ethoxy-1-(4-fluorophenyl)-2-oxo-1,2-dihydropyridine-3-carboxamide]: the IC50 in test [1] is greater than 1000 nM; in test [2], greater than 1000 nM; in test [3], no more than 100 nM.
